Here are results for 34 compounds from patent US11845730B2, “1,3-substituted cyclobutyl derivatives and uses thereof” (Novartis AG, priority 2021, dated 2023).

Where a name gives a salt, the structure may show the parent alone.

Usually IC50 stands for the concentration at which inhibition is half-maximal.

For this assay, the target named is human TRPV1 (Homo sapiens (Human), UniProt Q8NER1). Conditions: read-out: IC50 (μM), antagonist effect against human TRPV1; CHO cells expressing human TrpV1; stimulated with 2.5 μM NADA (EC80); mean of at least three independent experiments.
human TRPV1, sequence (Q8NER1 whole entry): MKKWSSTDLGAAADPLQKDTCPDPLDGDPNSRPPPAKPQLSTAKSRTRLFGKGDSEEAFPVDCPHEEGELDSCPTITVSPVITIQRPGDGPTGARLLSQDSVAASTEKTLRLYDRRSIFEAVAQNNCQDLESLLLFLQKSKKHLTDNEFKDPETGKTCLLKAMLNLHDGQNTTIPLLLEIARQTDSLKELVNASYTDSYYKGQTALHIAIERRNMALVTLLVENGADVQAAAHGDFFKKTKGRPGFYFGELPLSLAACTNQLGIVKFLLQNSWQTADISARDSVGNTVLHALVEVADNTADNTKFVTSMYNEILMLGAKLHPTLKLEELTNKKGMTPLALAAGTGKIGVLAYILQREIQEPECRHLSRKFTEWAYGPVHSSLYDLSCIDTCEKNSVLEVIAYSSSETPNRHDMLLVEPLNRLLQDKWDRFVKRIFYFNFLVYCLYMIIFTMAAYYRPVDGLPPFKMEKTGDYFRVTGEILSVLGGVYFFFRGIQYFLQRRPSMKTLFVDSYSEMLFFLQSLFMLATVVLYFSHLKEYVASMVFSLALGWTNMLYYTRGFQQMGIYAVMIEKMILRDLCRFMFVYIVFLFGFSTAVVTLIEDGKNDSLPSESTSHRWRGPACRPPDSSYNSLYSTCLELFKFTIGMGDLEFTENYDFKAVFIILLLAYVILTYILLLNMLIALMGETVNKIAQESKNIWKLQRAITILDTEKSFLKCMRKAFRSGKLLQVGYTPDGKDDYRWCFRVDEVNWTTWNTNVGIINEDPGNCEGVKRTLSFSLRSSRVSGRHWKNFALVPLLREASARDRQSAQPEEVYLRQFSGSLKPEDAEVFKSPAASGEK
For `OCC(O)c1cc(F)c(CN[C@H]2C[C@H](Oc3ccc(F)c(C(F)(F)F)c3)C2)c2ccncc12` (mixture of isomers) [Example 7 racemic, 1-(6-fluoro-5-((((1r,3r)-3-(4-fluoro-3-(trifluoromethyl)phenoxy)cyclobutyl)amino)methyl)isoquinolin-8-yl)ethane-1,2-diol], the IC50 stood at 10.4 nM.

In the case of `OCCC(O)c1cc(F)c(CNC2CC(Oc3ccc(F)c(C(F)(F)F)c3)C2)c2ccncc12` (racemic) [Example 9 racemic, 1-(6-fluoro-5-((((1r,3r)-3-(4-fluoro-3-(trifluoromethyl)phenoxy)cyclobutyl)amino)methyl)isoquinolin-8-yl)propane-1,3-diol], the half-inhibitory concentration (IC50) is 0.58 nM.

Regarding `OC[C@@H](O)c1cc(F)c(CN[C@H]2C[C@H](Oc3ccc(F)c(C(F)(F)F)c3)C2)c2ccncc12` (single isomer, unassigned; peak 1) [Example 7 peak 1], the IC50 was 0.62 nM.

As to `OCC[C@H](O)c1cc(F)c(CN[C@H]2C[C@H](Oc3ccc(F)c(C(F)(F)F)c3)C2)c2ccncc12` (single isomer, unassigned; peak 1) [Example 9 peak 1], the half-maximal inhibitory concentration (IC50) came to 0.09 nM.

As to `Nc1cc2c(CN[C@H]3C[C@H](Oc4ccc(F)c(C(F)(F)F)c4)C3)c(F)cc([C@@H](O)CO)c2cn1` (single isomer, unassigned; peak 1) [Example 21 peak 1], the IC50 amounted to 4.42 nM.

On to `OC[C@H](O)c1cc(F)c(CN[C@H]2C[C@H](Oc3ccc(F)c(C(F)(F)F)c3)C2)c2ccncc12` (single isomer, unassigned; peak 2) [Example 7 peak 2], for which the IC50 amounted to 6.3 nM.

Take `OCC[C@@H](O)c1cc(F)c(CN[C@H]2C[C@H](Oc3ccc(F)c(C(F)(F)F)c3)C2)c2ccncc12` (single isomer, unassigned; peak 2) [Example 9 peak 2]: the IC50 came to 13.7 nM.

Regarding `Nc1cc2c(CN[C@H]3C[C@H](Oc4ccc(F)c(C(F)(F)F)c4)C3)c(F)cc([C@H](O)CO)c2cn1` (single isomer, unassigned; peak 2) [Example 21 peak 2], the IC50 is 11.3 nM.

On to `Cc1ccc2cnccc2c1CN[C@H]1C[C@H](Oc2ccc(F)c(C(F)(F)F)c2)C1` [Example 1, (1r,3r)-3-(4-fluoro-3-(trifluoromethyl)phenoxy)-N-((6-methylisoquinolin-5-yl)methyl)cyclobutan-1-amine, HCl], for which the IC50 turned out to be 20.8 nM.

For `Cc1ccc2cnccc2c1CN[C@H]1C[C@H](Oc2ccc(C(F)(F)F)nc2)C1` [Example 2, (1r,3r)-N-((6-methylisoquinolin-5-yl)methyl)-3-((6-(trifluoromethyl)pyridin-3-yl)oxy)cyclobutan-1-amine, HCl], the IC50 amounted to 711 nM.

As to `Fc1ccc(O[C@H]2C[C@H](NCc3c(F)ccc4cnccc34)C2)cc1C(F)(F)F` [Example 3, (1r,3r)-3-(4-fluoro-3-(trifluoromethyl)phenoxy)-N-((6-fluoroisoquinolin-5-yl)methyl)cyclobutan-1-amine, HCl], the IC50 worked out at 3.44 nM.

Turning to `Nc1ccc(CN[C@H]2C[C@H](Oc3ccc(F)c(C(F)(F)F)c3)C2)c2ccncc12` [Example 5, 5-((((1r,3r)-3-(4-fluoro-3-(trifluoromethyl)phenoxy)cyclobutyl)amino)methyl)isoquinolin-8-amine, HCl], the IC50 amounted to 259 nM.

With `OCc1cc(F)c(CN[C@H]2C[C@H](Oc3ccc(F)c(C(F)(F)F)c3)C2)c2ccncc12` [Example 6, (6-fluoro-5-((((1r,3r)-3-(4-fluoro-3-(trifluoromethyl)phenoxy)cyclobutyl)amino)methyl)isoquinolin-8-yl)methanol, HCl], the IC50 turned out to be 7.25 nM.

Consider `CC(O)c1cc(F)c(CN[C@H]2C[C@H](Oc3ccc(F)c(C(F)(F)F)c3)C2)c2ccncc12` (stereo partly shown) [Example 8, 1-(6-fluoro-5-((((1r,3r)-3-(4-fluoro-3-(trifluoromethyl)phenoxy)cyclobutyl)amino)methyl)isoquinolin-8-yl)ethan-1-ol, HCl], for which the IC50 was found to be 165 nM.

`OCCc1cc(F)c(CN[C@H]2C[C@H](Oc3ccc(F)c(C(F)(F)F)c3)C2)c2ccncc12` [Example 10, 2-(6-fluoro-5-((((1r,3r)-3-(4-fluoro-3-(trifluoromethyl)phenoxy)cyclobutyl)amino)methyl)isoquinolin-8-yl)ethan-1-ol, HCl]: the IC50 is 166 nM.

As to `OC(CC(F)(F)F)c1cc(F)c(CN[C@H]2C[C@H](Oc3ccc(F)c(C(F)(F)F)c3)C2)c2ccncc12` (stereo partly shown) [Example 11, 3,3,3-trifluoro-1-(6-fluoro-5-((((1r,3r)-3-(4-fluoro-3-(trifluoromethyl)phenoxy)cyclobutyl)amino)methyl)isoquinolin-8-yl)propan-1-ol], the IC50 came to 395 nM.

Consider `Nc1cc(F)c(CN[C@H]2C[C@H](Oc3ccc(F)c(C(F)(F)F)c3)C2)c2ccncc12` [Example 12, 6-fluoro-5-((((1r,3r)-3-(4-fluoro-3-(trifluoromethyl)phenoxy)cyclobutyl)amino)methyl)isoquinolin-8-amine], for which the IC50 was found to be 57.8 nM.

For `Nc1cc2c(CN[C@H]3C[C@H](Oc4ccc(F)c(C(F)(F)F)c4)C3)cccc2cn1` [Example 13, 5-((((1r,3r)-3-(4-fluoro-3-(trifluoromethyl)phenoxy)cyclobutyl)amino)methyl)isoquinolin-3-amine], the IC50 is 63.7 nM.

As for `Nc1cc2c(CN[C@H]3C[C@H](Oc4ccc(F)c(C(F)(F)F)c4)C3)c(F)ccc2cn1` [Example 14, 6-fluoro-5-((((1r,3r)-3-(4-fluoro-3-(trifluoromethyl)phenoxy)cyclobutyl)amino)methyl)isoquinolin-3-amine, HCl], the IC50 was determined as 4.04 nM.

On to `Nc1cc2c(CN[C@H]3C[C@H](Oc4ccc(F)cc4F)C3)c(F)ccc2cn1` [Example 15, 5-((((1r,3r)-3-(2,4-difluorophenoxy)cyclobutyl)amino)methyl)-6-fluoroisoquinolin-3-amine, HCl], for which the IC50 turned out to be 51 nM.

`Nc1cc2c(CN[C@H]3C[C@H](Oc4ccnc(C(F)(F)F)c4)C3)c(F)ccc2cn1` [Example 16, 6-fluoro-5-((((1r,3r)-3-((2-(trifluoromethyl)pyridin-4-yl)oxy)cyclobutyl)amino)methyl)isoquinolin-3-amine, HCl]: the IC50 came out at 31 nM.

Regarding `Nc1cc2c(CN[C@H]3C[C@H](Oc4ccc(C(F)(F)F)nc4)C3)c(F)ccc2cn1` [Example 17, 6-fluoro-5-((((1r,3r)-3-((6-(trifluoromethyl)pyridin-3-yl)oxy)cyclobutyl)amino)methyl)isoquinolin-3-amine, HCl], the IC50 was 130 nM.

For `Nc1cc2c(CN[C@H]3C[C@H](Oc4ccc(F)c(C(F)(F)F)c4)C3)c(F)cc(CO)c2cn1` [Example 18, (3-amino-6-fluoro-5-((((1r,3r)-3-(4-fluoro-3-(trifluoromethyl)phenoxy)cyclobutyl)amino)methyl)isoquinolin-8-yl)methanol, HCl], the IC50 came out at 1.63 nM.

Consider `Nc1cc2c(CN[C@H]3C[C@H](Oc4ccc(F)cc4F)C3)c(F)cc(CO)c2cn1` [Example 19, (3-amino-5-((((1r,3r)-3-(2,4-difluorophenoxy)cyclobutyl)amino)methyl)-6-fluoroisoquinolin-8-yl)methanol, HCl], for which the IC50 came to 16.2 nM.

`Nc1cc2c(CN[C@H]3C[C@H](Oc4ccnc(C(F)(F)F)c4)C3)c(F)cc(CO)c2cn1` [Example 20, (3-amino-6-fluoro-5-((((1r,3r)-3-((2-(trifluoromethyl)pyridin-4-yl)oxy)cyclobutyl)amino)methyl)isoquinolin-8-yl)methanol, HCl]: the IC50 was found to be 87.2 nM.

As for `Fc1ccc(O[C@H]2C[C@H](NCc3cccc4cnccc34)C2)cc1C(F)(F)F` [Example 22, (1r,3r)-3-(4-fluoro-3-(trifluoromethyl)phenoxy)-N-(isoquinolin-5-ylmethyl)cyclobutan-1-amine, HCl], the IC50 was found to be 436 nM.

For the compound `Oc1ccc(CN[C@H]2C[C@H](Oc3ccc(F)c(C(F)(F)F)c3)C2)c2ccncc12` [Example 23, 5-((((1r,3r)-3-(4-fluoro-3-(trifluoromethyl)phenoxy)cyclobutyl)amino)methyl)isoquinolin-8-ol, HCl], the IC50 turned out to be 232 nM.

As to `Cc1ccc(CN[C@H]2C[C@H](Oc3ccc(F)c(C(F)(F)F)c3)C2)c2ccncc12` [Example 24, (1r,3r)-3-(4-fluoro-3-(trifluoromethyl)phenoxy)-N-((8-methylisoquinolin-5-yl)methyl)cyclobutan-1-amine, HCl], the IC50 was 906 nM.

In the case of `OCc1ccc(CN[C@H]2C[C@H](Oc3ccc(F)c(C(F)(F)F)c3)C2)c2ccncc12` [Example 25, (5-((((1r,3r)-3-(4-fluoro-3-(trifluoromethyl)phenoxy)cyclobutyl)amino)methyl)isoquinolin-8-yl)methanol, HCl], the IC50 stood at 100 nM.

As to `Fc1ccc(O[C@H]2C[C@H](NCc3c(F)ccc4cnccc34)C2)c(F)c1` [Example 26, (1r,3r)-3-(2,4-difluorophenoxy)-N-((6-fluoroisoquinolin-5-yl)methyl)cyclobutan-1-amine], the 50% inhibitory concentration (IC50) is 108 nM.

As to `Fc1ccc(O[C@H]2C[C@H](NCc3c(F)ccc4cnccc34)C2)cc1F` [Example 27, (1r,3r)-3-(3,4-difluorophenoxy)-N-((6-fluoroisoquinolin-5-yl)methyl)cyclobutan-1-amine, HCl], the IC50 worked out at 23 nM.

On to `Fc1ccc(O[C@H]2C[C@H](NCc3cccc4cnccc34)C2)cc1Cl` [Example 28, (1r,3r)-3-(3-chloro-4-fluorophenoxy)-N-(isoquinolin-5-ylmethyl)cyclobutan-1-amine, HCl], for which the IC50 was found to be 280 nM.

As to `Fc1ccc2cnccc2c1CN[C@H]1C[C@H](Oc2cccc(OC(F)F)c2)C1` [Example 29, (1r,3r)-3-(3-(difluoromethoxy)phenoxy)-N-((6-fluoroisoquinolin-5-yl)methyl)cyclobutan-1-amine, HCl], the IC50 came to 62.3 nM.

As to `Fc1ccc2cnccc2c1CN[C@H]1C[C@H](Oc2ccc(OC(F)F)cc2)C1` [Example 30, (1r,3r)-3-(4-(difluoromethoxy)phenoxy)-N-((6-fluoroisoquinolin-5-yl)methyl)cyclobutan-1-amine, HCl], the IC50 stood at 186 nM.
